Measurements: patent publication US20090106858A1, “Isolation and Characterization of the Csb3-1 Mutant of Arabidopsis Thaliana and Use Thereof as a Regulator of Resistance in Plants to Diseases Caused by Biotrophic Pathogens” (priority 2005, published 2009)
Entries after “also recorded” stand apart in the source; their conditions may differ.

What was measured:
[1] = tested on: PR-1 and GST6 marker genes; test: RT-PCR analysis of SA regulated marker genes PR-1 and GST6; format: in vivo, Arabidopsis thaliana; details: csb3-1 seedlings, 25 μM
Procedure: (§1) FIG. 8. Pharmacological complementation with phosmidomicine of the resistance increase in csb3-1 plants. • (A) Wild seedlings (wt) and csb3-1 seedlings of Arabidopsis were sprayed once at 48 hours and 24 hours before exposing them to Pst DC3000 with a buffer solution complemented with 25 μM or 50 μM dilution (+phosm) the controls were treated in a similar manner with buffer solution alone. The plants were exposed to Pst DC3000 and the pathogen's growth was recorded at days 0, 3 and 5 after inoculation (dpi). • (B) The effect of the phosmidomicine treatment (25 μM, treated as described in point (A) on the constitutive expression of P69C-GUS in csb3-1 seedlings (right) as compared with csb3-1 seedlings treated with the buffer solution alone (left). • (C) The effect of the phosmidomicine treatment (25 μM, treated as described in point (A) on the constitutive expression of SA regulated marker genes in csb3-1 seedlings of Arabidopsis as compared with csb3-1 seedlings treated with the buffer solution alone.
To analyze the level of genic expression by inverse transcriptase mediated PCR, the total RNA samples from leaf tissue were prepared using the Totally RNA kit made by Ambion (Austin, Tex.). Inverse transcription was done using the RT kit for PCR made by Clontech (Palo Alto, Calif.). […]

P69C-GUS [2] = test: Histochemical GUS staining of P69C-GUS indicator gene expression; format: in vivo, Arabidopsis thaliana; details: csb3-1 seedlings, 25 μM
Procedure: as §1
The mutant line csb3-1 used in these experiments had been subjected to backcrossing at least four times with the original wild line. Plants were made to grow in a growth chamber (19-23° C., fluorescent light at 100 μEm^−2 seg^−1) in a cycle of 10 hours of light to 14 hours of darkness. […]

[3] = tested on: Pseudomonas syringae pv. tomato DC3000; test: Pst DC3000 bacterial growth in Arabidopsis seedlings sprayed with phosmidomicine before inoculation; format: in vivo, Arabidopsis thaliana
Source text: An increase in substrate (MEcPP) accumulation of the CSB3/HDS enzyme or of any of the intermediate metabolic products that precede MEcPP accumulation in the MEP pathway (FIG. 6) could be responsible for the increased resistance of csb3-1 plants. Alternatively, a decrease of product synthesis (HMBPP) of the same enzyme could compromise the synthesis and accumulation of final products (IPP and DMAPP) (FIG. 6) that in turn could compromise the later biosynthesis of the different isoprenoids that must be derived from the MEP pathway. This last possibility can also be responsible for the resistance increase of the csb3-1 plants. In order to study any of these possibilities the impact of an inhibitor in the MEP pathway for increased resistance of csb3-1 plants to Pst DC3000 was studied. To approach the question in this manner phosmidomicine [3-(N-formil-N-hydroxyamino)-propylphosphonic acid] was used as well as a DXR competitive inhibitor, the enzyme that controls the second stage involved in the MEP pathway (FIG. 6) and reduces the levels of the final products obtained by this pathway (that is, IPP and DMAPP) (Schwender, J., Muller, C., Zeidler, J., and Lichtenthaler, H. K. (1999). Cloning and heterologous expression of a cDNA encoding 1-deoxy-D-xylulose-5 phosphate reductoisomerase of Arabidopsis thaliana. FEBS Lett. 455, 140-144; Laule, O., Furholz, A., Chang, H., Zhu, T., Wang, X., Heifetz, P. B., Gruissem, W., and Lange, M. (2003). Crosstalk between cytosolic and plastidial pathways of isoprenoid biosynthesis in Arabidopsis thaliana. Proc. Natl. Acad. Sci. USA 100, 6866-6871). In order to separate this response from the response derived from an arrest of the chloroplast development, phosmidomicine treatments were applied in much smaller dosages and during smaller periods of times than those used experimentally by others (Laule et al., 2003). Wild seedlings and csb3-1 seedlings were sprayed once with a 25 μM or a 50 μM dilution of phosmidomicine 48 hours and 24 hours before inoculation with Pst DC3000 and the subsequent bacterial growth was recorded in inoculated plants at 0.3 and 5 d.p.i. Treated plants were also studied to determine the effect on the normal expression of the P69C-GUS gene. […] Greater dosages of this inhibitor were not tested, since they could have a collateral developmental and/or homeostatic effect in the chloroplast that could lead to undesired side effects.
FIG. 8. […] The plants were exposed to Pst DC3000 and the pathogen's growth was recorded at days 0, 3 and 5 after inoculation (dpi). • (B) The effect of the phosmidomicine treatment (25 μM, treated as described in point (A) on the constitutive expression of P69C-GUS in csb3-1 seedlings (right) as compared with csb3-1 seedlings treated with the buffer solution alone (left). • (C) The effect of the phosmidomicine treatment (25 μM, treated as described in point (A) on the constitutive expression of SA regulated marker genes in csb3-1 seedlings of Arabidopsis as compared with csb3-1 seedlings treated with the buffer solution alone.
Pseudomonas syringae pv. tomato DC3000 was grown and was then prepared to be inoculated as previously described (Mayda et al., 2000). […] A high throughput method for quantifying growth of phytopathogenic bacteria in Arabidopsis thaliana. […]

P69C-GUS [4] = details: wild Arabidopsis plants, local application (Jordá et al., 2000); cited from earlier work

| SMILES | effect on constitutive expression of PR-1 and GST6 marker genes [1] | effect on constitutive expression of the P69C-GUS transgene (P69C-GUS [2]) | effect on increased resistance of csb3-1 plants to Pst DC3000 (bacterial growth) ([3]; csb3-1 plants, 5 μM treatments) | complementation of the resistance increase phenotype associated to csb3-1 ([3]; csb3-1 plants, summary statement) | effect on increased resistance of csb3-1 plants to Pst DC3000 (bacterial growth) ([3]; csb3-1 seedlings, one 50 μM treatment) | effect on increased resistance of csb3-1 plants to Pst DC3000 (bacterial growth) ([3]; csb3-1 seedlings, sprayed once with 25 μM 48 h and 24 h before inoculation) | effect on normal resistance of wild plants to Pst DC3000 (bacterial growth) ([3]; wild plants, 50 μM) | expression of P69C-GUS after local application (P69C-GUS [4]) |
| --- | --- | --- | --- | --- | --- | --- | --- | --- |
| O=CN(O)CCCP(=O)(O)O [phosmidomicine, 3-(N-formil-N-hydroxyamino)-propylphosphonic acid] | regulation by reduction of the constitutive expression | regulation by reduction of the constitutive expression of the P69G-GUS transgene | provoked a reduction in the increased resistance of the csb3-1 plants that was only observed 5 days after inoculation | complement completely the resistance increase phenotype associated to csb3-1 | completely suppressed the resistance increase attributed to the csb3-1 mutation | noticeably reduce resistance increase to Pst DC3000 | made the plants more susceptible to this virulent pathogen; also recorded: resulted in greater rates of bacterial growth | – |
| O=C(O)c1ccccc1O [SA, Salicylic acid] | – | – | – | – | – | – | – | induces the expression of the P69C-GUS |
